Source: patent US20250270224A1, “POLYCYCLIC POLY(ADP-RIBOSE) POLYMERASE SELECTIVE INHIBITOR” (XUANZHU BIOPHARMACEUTICAL CO., LTD., priority 2022, published 2025)

Legend:
MDA-MB-436 cells = assay: In-vitro cytological inhibitory activity (CelltiterGlo assay), 7 days culture; format: cell-based; details: BRCA1 mutated human breast cancer cells, CTG
Method: The MDA-MB-436 cells were adherent cells, and the culture solution was DMEM+10% FBS+1% ITS-G+16 μg/ml glutathione.
Cells in the logarithmic growth phase were collected and counted by a […]. The cell viability was detected by a trypan blue exclusion method, and the cell viability was kept over 90%. The cell concentration was adjusted to be in a proper range, and 90 μL of cell suspension was added into a 96-well plate respectively.
The stock solutions of the test compounds were diluted by 10 times from 10 mM to 1 mM with DMSO, and then continuously gradiently diluted by 3 times with DMSO into a total of 9 concentrations.
10 μL of compound working stock solution was added into each well in a 96-well plate inoculated with cells (diluted by 10 times, the final concentration of DMSO was 0.1%).
Solvent control: 0.1% DMSO (2 μL of DMSO was diluted with 198 μL of culture solution, and then 10 μL of the diluted solution was added into the well plate).
Blank control: the 96-well plate was detected and read 0 hour after the addition.
2.5 the 96-Well Plate was Placed in a 5% CO2 Cell Incubator at 37° C. To Culture for 7 Days
A CTG reagent was thawed and the 96-well plate was equilibrated to room temperature for 30 minutes, 60 μL of reagent (Celltiter Glo assay kit) was added into each well and shaken by a shaker for 2 minutes to mix uniformly (in the dark), and the mixture was incubated at room temperature for 20 minutes (in the dark). Light signal values were read by a multi-functional microplate reader.

PARP1 = PARP1 (Homo sapiens (Human), UniProt P09874); assay: In-vitro enzymatic activity, PARP1 (histone-coated plate, chemiluminescence detection); format: biochemical; details: class symbols
PARP2 = PARP2 (Homo sapiens (Human), UniProt Q9UGN5); assay: In-vitro enzymatic activity, PARP2 (histone-coated plate, chemiluminescence detection); format: biochemical; details: class symbols
Chain of PARP2 (Q9UGN5 whole entry): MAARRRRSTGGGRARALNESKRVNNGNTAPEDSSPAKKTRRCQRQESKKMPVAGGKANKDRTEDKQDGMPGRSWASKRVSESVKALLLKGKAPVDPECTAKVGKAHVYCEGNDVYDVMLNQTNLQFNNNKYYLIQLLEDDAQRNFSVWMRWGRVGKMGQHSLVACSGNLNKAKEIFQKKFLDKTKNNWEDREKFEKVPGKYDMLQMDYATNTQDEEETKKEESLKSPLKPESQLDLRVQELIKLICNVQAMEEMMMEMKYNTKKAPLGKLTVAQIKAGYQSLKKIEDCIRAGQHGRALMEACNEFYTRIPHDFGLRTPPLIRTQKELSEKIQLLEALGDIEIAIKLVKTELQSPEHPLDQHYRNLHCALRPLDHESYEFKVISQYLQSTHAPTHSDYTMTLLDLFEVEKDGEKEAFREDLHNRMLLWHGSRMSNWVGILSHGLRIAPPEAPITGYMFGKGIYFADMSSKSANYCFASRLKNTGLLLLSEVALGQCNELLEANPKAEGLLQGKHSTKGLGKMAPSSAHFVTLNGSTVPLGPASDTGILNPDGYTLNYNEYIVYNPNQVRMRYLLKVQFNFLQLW

Chain of PARP1 (P09874 whole entry): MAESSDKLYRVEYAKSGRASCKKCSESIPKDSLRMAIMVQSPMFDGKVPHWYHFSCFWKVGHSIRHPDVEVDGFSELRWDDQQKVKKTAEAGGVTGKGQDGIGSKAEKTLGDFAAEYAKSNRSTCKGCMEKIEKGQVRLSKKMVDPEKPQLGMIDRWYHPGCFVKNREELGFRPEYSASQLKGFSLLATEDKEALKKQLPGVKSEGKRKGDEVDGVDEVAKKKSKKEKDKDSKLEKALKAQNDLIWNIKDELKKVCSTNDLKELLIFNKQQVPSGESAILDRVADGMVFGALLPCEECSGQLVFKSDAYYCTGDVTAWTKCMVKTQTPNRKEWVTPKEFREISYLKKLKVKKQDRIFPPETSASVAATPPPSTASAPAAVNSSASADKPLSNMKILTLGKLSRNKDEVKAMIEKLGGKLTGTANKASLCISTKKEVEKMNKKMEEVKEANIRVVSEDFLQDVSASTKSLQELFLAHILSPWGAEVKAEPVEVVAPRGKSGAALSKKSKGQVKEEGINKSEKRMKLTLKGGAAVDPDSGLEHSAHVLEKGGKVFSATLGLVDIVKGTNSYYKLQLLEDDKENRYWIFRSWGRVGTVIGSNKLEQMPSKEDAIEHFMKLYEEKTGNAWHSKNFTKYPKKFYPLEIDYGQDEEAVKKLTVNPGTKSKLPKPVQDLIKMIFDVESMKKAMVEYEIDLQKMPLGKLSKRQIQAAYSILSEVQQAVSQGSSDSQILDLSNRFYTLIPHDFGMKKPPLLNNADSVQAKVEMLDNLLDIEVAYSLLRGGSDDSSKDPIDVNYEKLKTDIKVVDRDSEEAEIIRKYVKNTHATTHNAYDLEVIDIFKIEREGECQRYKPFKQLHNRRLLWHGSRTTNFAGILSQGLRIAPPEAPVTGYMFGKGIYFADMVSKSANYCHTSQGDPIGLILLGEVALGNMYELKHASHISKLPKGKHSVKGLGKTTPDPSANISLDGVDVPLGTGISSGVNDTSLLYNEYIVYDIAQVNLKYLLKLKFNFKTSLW

Compound | IC50 (MDA-MB-436 cells) | IC50 (PARP1) | IC50 (PARP2) | IC50 (MDA-MB-436 cells; MDA-MB-436, 168 h)
CNC(=O)c1ccc(N2CCN(Cc3cc4c5c(c(C)c(=O)[nH]c5c3F)CC4)CC2)c(F)n1 [Compound 6, 6-fluoro-5-(4-((8-fluoro-3-methyl-2-oxo-1,2,4,5-tetrahydrocyclopentyl[de]quinoline-7-yl)methyl)piperazine-1-yl)-N-methylpicolinamide] | 2 nM |  |  | 
CNC(=O)c1ccc(N2CCN(Cc3cc4c5c(c(C)c(=O)[nH]c5c3)CC4)CC2)c(F)n1 [Compound 31, 6-fluoro-N-methyl-5-(4-((3-methyl-2-oxo-1,2,4,5-tetrahydrocyclopentane[de]quinoline-7-yl)methyl)piperazine-1-yl)pyridine carboxamide] | 2.2 nM | < 1 nM | 10 to 100 nM | 
(S)-6-fluoro-5-(4-((9-fluoro-3-methyl-2-oxo-2,3-dihydro-1H-pyrrolo[1,2,3-de]quinoxaline-8-yl) methyl)piperazine-1-yl)-N-methylpyridine formamide [Compound 35] | 46.5 nM |  |  | 
CNC(=O)c1ccc(N2CCN(Cc3cc4c5c(cnn5CC(=O)N4)c3)CC2)c(F)n1 [Compound 8, 6-fluoro-N-methyl-5-(4-((2-oxo-2,3-dihydro-1H-pyrazolo[1,5,4-de]quinoxaline-8-yl)methyl)piperazine-1-yl)picolinamide] |  |  |  | 129 nM
CNC(=O)c1ccc(N2CCN(Cc3cc4c5c(ccn5C(C)(C)C(=O)N4)c3)CC2)c(F)n1 [Compound 46, 5-(4-((3,3-dimethyl-2-oxo-2,3-dihydro-1H-pyrrolo[1,2,3-de]quinoxaline-8-yl)methyl)piperazine-1-yl)-6-fluoro-N-methylpicolinamide] |  | 3 to 10 nM | 100 to 1000 nM | 9.2 nM
5-(4-((6,9-difluoro-3-methyl-2-oxo-2,3-dihydro-1H-pyrrolo[1,2,3-de]quinoxaline-8-yl)methyl)piperazine-1-yl)-6-fluoro-N-methylpyridine Formamide [Compound 38] | 15.2 nM | 1 to 3 nM | 100 to 1000 nM | 
CNC(=O)c1ccc(N2CCN(Cc3cc4c5c(ccn5CC(=O)N4)c3)CC2)c(F)n1 [Compound 11, 6-fluoro-N-methyl-5-(4-((2-oxo-2,3-dihydro-1H-pyrrolo[1,2,3-de]quinoxaline-8-yl)methyl)piperazine-1-yl)picolinamide] |  |  |  | 21.5 nM
CNC(=O)c1ccc(N2CCN(Cc3cc4c5c(c(C)c(=O)[nH]c5c3)CCC4)CC2)c(F)n1 [Compound 25, 6-fluoro-N-methyl-5-(4-((3-methyl-2-oxo-2,4,5,6-tetrahydro-1H-benzo[de]quinoline-8-yl)methyl)piperazine-1-yl)picolinamide] |  | < 1 nM | 10 to 100 nM | 15.8 nM
CNC(=O)c1ccc(N2CCN(Cc3cc4c5c(c3)c(F)nn5[C@H](C)C(=O)N4)CC2)c(F)n1 [Compound 49-2, (R)-6-fluoro-5-(4-((6-fluoro-3-methyl-2-oxo-2,3-dihydro-1H-pyrazolo[1,5,4-de]quinoxaline-8-yl)methyl)piperazine-1-yl)-N-methylpicolinamide] |  | < 1 nM | 100 to 1000 nM | 2.9 nM
CNC(=O)c1ccc(N2CCN(Cc3cc4c5c(c3)c(F)nn5[C@@H](C)C(=O)N4)CC2)c(F)n1 [Compound 49-1, (S)-6-fluoro-5-(4-((6-fluoro-3-methyl-2-oxo-2,3-dihydro-1H-pyrazolo[1,5,4-de]quinoxaline-8-yl)methyl)piperazine-1-yl)-N-methylpicolinamide] |  | 1 to 3 nM | 100 to 1000 nM | 3.6 nM
CNC(=O)c1ccc(N2CCN(Cc3cc4ccn5c4c(c3F)NC(=O)[C@H]5C)CC2)c(F)n1 [Compound 36, (R)-6-fluoro-5-(4-((9-fluoro-3-methyl-2-oxo-2,3-dihydro-1H-pyrrolo[1,2,3-de]quinoxaline-8-yl)methyl)piperazine-1-yl)-N-methylpyridine formamide] |  |  |  | 11.1 nM
CNC(=O)c1ccc(N2CCN(Cc3cc4cc(C)n5c4c(c3F)NC(=O)C5C)CC2)c(F)n1 (centres unmarked) [Compound 34, 6-fluoro-5-(4-((9-fluoro-3,5-dimethyl-2-oxo-2,3-dihydro-1H-pyrrolo[1,2,3-de]quinoxaline-8-yl)methyl)piperazine-1-yl)-N-methylpyridine formamide] |  | 1 to 3 nM | 100 to 1000 nM | 13.6 nM
